{"source": "patent US12002595B2", "about": "“Separation of metal ions by liquid-liquid extraction” (priority 2016, dated 2024)", "key": {"[1]": {"conditions": "UO2^2+; 25° C.; cited from earlier work"}, "[2]": {"conditions": "Lu^3+; 25° C.; cited from earlier work"}, "[3]": {"test": "Extraction by HDEHP at constant pH with 3,4,3-LI(1,2-HOPO) as hold-back reagent", "conditions": "1 mM ligand; for % Extraction: 0.1 M HNO3/1.9 M NaNO3, extraction of ^242Plutonium(IV); for SF Am^3+/Pu^4+: to be seen as lower limit", "method": "(§1) In FIG. 26, aqueous phase: [ligand]=1 mM, buffer 0.1 M HNO3/1.9 M NaNO3. Organic phase: HDEHP diluted in kerosene. [HDEHP]=0.05, 0.10, 0.25, 0.50, 1.0, or 2.0 M. T=25° C. Volume organic phase/Volume aqueous phase=1. Initial metal concentrations: [Pu-242]=10 μM, [Am-243]=0.25 μM, or [Gd-153]=0.16 nM. Phases analyzed after one contact. Contact time: 30 min.\nThe separation factor values given here must been seen as lower limit since the extraction of Pu(IV) is near zero."}, "[4]": {"test": "Back-extraction from 30% TBP in kerosene (modified PUREX) with 343HOPO", "conditions": "1 mM 343HOPO, up to 8 M HNO3", "method": "Dotted lines: separation factor U/Pu. Organic phase: 30% TBP in kerosene.\nFor Example 20—Example 24, pH measurements were performed with a glass electrode (Metrohm-Micro Combi-response to [H+]) calibrated at 25.0° C. using three NIST standards. Extraction samples were analyzed by liquid scintillation counting (LSC). The distribution coefficient, D(M), of a given metal, M, is defined in Eq. 1, where [M]organic and [M]aqueous are the respective total concentrations of M in the organic and aqueous layers, after extraction. Both concentrations are proportional to the volumetric activity (in Bq/L) determined by LSC. The separation factor, SFM1/M2, between two metals, M1 and M2, and extraction yield were calculated according to Eq. 2 and Eq. 3, respectively.\nIn a typical experiment, the solvent (extractant diluted in kerosene) was pre-conditioned by shaking one volume of solvent with three volumes of aqueous phase (typically HNO3) at room temperature for 1 h, thrice. […] Samples were counted for at least 6 min and results were background subtracted. […] Mixtures of ^249Bk and ^249Cf were analyzed using α/β discrimination and energy windows were set to 0-50 keV for low-energy β particles of ^249Bk and 50-1000 keV for α particles of ^249Cf. ^243Am and ^225Ac samples were counted at secular equilibrium."}, "[5]": {"conditions": "La^3+; 25° C.; cited from earlier work"}, "[6]": {"test": "Ligand selectivity from stability constants", "type": "binding", "excerpt": "While this class of ligands, encompassing HOPO and catecholamide (CAM) derivatives, has been known for decades, it had never been studied in details for separation applications. In fact, a few exceptions aside, most of these chelators have only been studied with a single cation, such as Gd^3+, Th^4+, or Pu^4+, impairing broader evaluation of their metal-metal selectivity. The chemistry of some HOPO ligands was recently extended across the periodic table, highlighting their outstanding selectivity, and large superiority over polyaminocarboxylate chelators (IDA, EDTA, DTPA, etc.), typically encountered in separations (FIGS. 46A-46F). Stability constants (log βML) were calculated as described in Sturzbecher-Hoehne, M., Kullgren, B., Jarvis, E. E., An, D. D. & Abergel, R. J. Highly Luminescent and Stable Hydroxypyridinonate Complexes: A Step Towards New Curium Decontamination Strategies. Chem. Eur. J. 20, 9962-9968 (2014); Sturzbecher-Hoehne, M., Yang, P., D'Aldo, A. & Abergel, R. J. Intramolecular sensitization of americium luminescence in solution: shining light on short-lived forbidden 5f transitions. Dalton Trans. 45, 9912-9919 (2016); Deblonde, G. J.-P., Lohrey, T. D., An, D. D. & Abergel, R. J. Toxic heavy metal—Pb, Cd, Sn—complexation by the octadentate hydroxypyridinonate ligand archetype 3,4,3-LI(1,2-HOPO). New J. Chem. 42, 7649-7658 (2018). […]"}, "[7]": {"conditions": "Pb^2+; 25° C.; cited from earlier work"}, "[8]": {"test": "Extraction by HDEHP at constant pH with 3,4,3-LI(1,2-HOPO) as hold-back reagent", "conditions": "1 mM ligand; for % Extraction: 0.1 M HNO3/1.9 M NaNO3, extraction of ^153Gadolinium(III); for SF Gd^3+/Pu^4+: to be seen as lower limit", "method": "as §1\nThe separation factor values given here must been seen as lower limit since the extraction of Pu(IV) is near zero. […]"}, "[9]": {"conditions": "Gd^3+; 25° C.; cited from earlier work"}}, "note": "Read-outs that look alike come from different tables or passages of the source."}
{"compound": "O=C(NCCCN(CCCCN(CCCNC(=O)c1cccc(=O)n1O)C(=O)c1cccc(=O)n1O)C(=O)c1cccc(=O)n1O)c1cccc(=O)n1O", "note": "[3,4,3-LI(1,2-HOPO)]", "values": [{"measurement": "log βML", "setting": "[1]", "result": "18.0 ± 0.4"}, {"measurement": "log βML", "setting": "[2]", "result": "21.2 ± 0.1"}, {"measurement": "% Extraction", "setting": "[3]; HDEHP 0.05 M", "result": 0.02, "unit": "%"}, {"measurement": "SF Am^3+/Pu^4+", "setting": "[3]; HDEHP 0.05 M", "result": 14}, {"measurement": "% Extraction", "setting": "[3]; HDEHP 0.10 M", "result": 0.02, "unit": "%"}, {"measurement": "SF Am^3+/Pu^4+", "setting": "[3]; HDEHP 0.10 M", "result": 84}, {"measurement": "% Extraction", "setting": "[3]; HDEHP 0.25 M", "result": 0.05, "unit": "%"}, {"measurement": "SF Am^3+/Pu^4+", "setting": "[3]; HDEHP 0.25 M", "result": 236}, {"measurement": "% Extraction", "setting": "[3]; HDEHP 0.50 M", "result": 0.03, "unit": "%"}, {"measurement": "SF Am^3+/Pu^4+", "setting": "[3]; HDEHP 0.50 M", "result": 1450}, {"measurement": "% Extraction", "setting": "[3]; HDEHP 1.00 M", "result": 0.16, "unit": "%"}, {"measurement": "SF Am^3+/Pu^4+", "setting": "[3]; HDEHP 1.00 M", "result": 624}, {"measurement": "% Extraction", "setting": "[3]; HDEHP 2.00 M", "result": 0.21, "unit": "%"}, {"measurement": "SF Am^3+/Pu^4+", "setting": "[3]; HDEHP 2.00 M", "result": 649}, {"measurement": "SFU/Pu", "setting": "[4]", "result": "≤ 5,800"}, {"measurement": "log βML", "setting": "[5]", "result": "16.4 ± 0.4"}, {"measurement": "Ce^4+/Ce^3+ selectivity above what could be expected from a carboxylate ligand", "setting": "[6]", "result": "about 15 orders of magnitude"}, {"measurement": "log βML", "setting": "[7]", "result": "18.0 ± 0.2"}, {"measurement": "% Extraction", "setting": "[8]; HDEHP 0.05 M", "result": 4.92, "unit": "%"}, {"measurement": "SF Gd^3+/Pu^4+", "setting": "[8]; HDEHP 0.05 M", "result": 331}, {"measurement": "% Extraction", "setting": "[8]; HDEHP 0.10 M", "result": 23.79, "unit": "%"}, {"measurement": "SF Gd^3+/Pu^4+", "setting": "[8]; HDEHP 0.10 M", "result": 1948}, {"measurement": "% Extraction", "setting": "[8]; HDEHP 0.25 M", "result": 73.91, "unit": "%"}, {"measurement": "SF Gd^3+/Pu^4+", "setting": "[8]; HDEHP 0.25 M", "result": 5976}, {"measurement": "% Extraction", "setting": "[8]; HDEHP 0.50 M", "result": 92.15, "unit": "%"}, {"measurement": "SF Gd^3+/Pu^4+", "setting": "[8]; HDEHP 0.50 M", "result": 39182}, {"measurement": "% Extraction", "setting": "[8]; HDEHP 1.00 M", "result": 97.85, "unit": "%"}, {"measurement": "SF Gd^3+/Pu^4+", "setting": "[8]; HDEHP 1.00 M", "result": 28460}, {"measurement": "% Extraction", "setting": "[8]; HDEHP 2.00 M", "result": 99.26, "unit": "%"}, {"measurement": "SF Gd^3+/Pu^4+", "setting": "[8]; HDEHP 2.00 M", "result": 64723}, {"measurement": "log βML", "setting": "[9]", "result": "20.5 ± 0.1"}]}
